Results published in US8999966B2, “Compounds that are ERK inhibitors” (Merck Sharp & Dohme Corp., priority 2010, dated 2015).

The compounds below were run against fully phosphorylated, active Mouse ERK2 protein (Mus musculus, UniProt P63085) (assay: Active ERK2 assay (AERK2), IMAP format). Conditions: activated ERK2, IMAP fluorescence polarization, 30 μM ATP.
Assay type: biochemical
Method: 14 μl of kinase buffer (10 mM Tris.HCl pH 7.2, 10 mM MgCl2, 0.01% Tween-20, 1 mM DTT) containing 0.4 ng unphosphorylated Mouse ERK2 protein can be added to each well of a black 384-well assay plate. […] DMSO concentration during initial incubation is 6.7%. ERK2 activity can be determined to be insensitive to DMSO concentrations up to 20%. ERK2 can then be activated and it's kinase activity can be measured by the addition of 10 μl kinase buffer with the following components (final concentration per reaction): 2 ng active (phosphorylated) human MEK1 protein and 4 μM (total) ERK2 IMAP substrate peptides (3.9 μM unlabeled IPTTPITTTYFFFK-CONH2 and 100 nM IPTTPITTTYFFFK(5-carboxyfluorescein)-CONH2) and 30 μM ATP. DMSO concentration during ERK activation can be 4%. After one hour, reactions can be terminated by addition of 60 μl IMAP detections beads in binding buffer (Molecular Devices). Binding can be allowed to equilibrate for 30 minutes before reading the plate on an LJL Analyst Fluorescence Polarization plate reader. […] Active compounds can be reconfirmed in an independent assay.
Activated ERK2 activity was also determined in the IMAP assay format using the procedure outlined above. 1 μl of 25× compound was added to 14 μl of kinase buffer containing 0.25 ng fully phosphorylated, active Mouse ERK2 protein. Following a 30 minute incubation, the reactions were initiated by addition of 10 μl of kinase buffer containing 1 μM ERK2 IMAP substrate peptide (0.9 μM unlabeled IPTTPITTTYFFFK-CONH2 and 100 nM IPTTPITTTYFFFK(5-carboxyfluorescein)-CONH2) and 30 μM ATP. Reactions proceeded for 30 minutes before termination by addition of 60 μl IMAP detection beads in binding buffer. Plates were read as above after 30 minute binding equilibration. Active compounds were reconfirmed in an independent assay.

Sequence of fully phosphorylated, active Mouse ERK2 protein (P63085 whole entry): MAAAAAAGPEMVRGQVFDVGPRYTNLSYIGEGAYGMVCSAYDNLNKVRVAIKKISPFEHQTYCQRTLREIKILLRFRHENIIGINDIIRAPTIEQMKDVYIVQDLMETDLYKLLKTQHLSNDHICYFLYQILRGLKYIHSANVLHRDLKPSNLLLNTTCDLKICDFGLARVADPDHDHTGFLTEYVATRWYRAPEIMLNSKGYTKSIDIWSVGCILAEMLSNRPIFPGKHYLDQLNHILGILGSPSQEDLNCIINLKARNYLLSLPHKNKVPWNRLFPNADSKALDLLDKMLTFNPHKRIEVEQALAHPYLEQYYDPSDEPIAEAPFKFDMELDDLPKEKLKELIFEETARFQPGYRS

Row | IC50 [nM] | SMILES
1 | ≥ 504 | CC(C)Sc1ccc(-c2n[nH]c3ccc(-c4n[nH]c([C@@H]5CCCN(Cc6c(F)cccc6F)C5)n4)cc23)cc1 [Example 305, 5-[5-[1-[(2,6- DIFLUOROPHENYL)METHYL]- 3(R)-PIPERIDINYL]-1H- 1,2,4-TRIAZOL-3-YL]-3-[4-[(1- METHYLETHYL)THIO]PHEN- YL]-1H-INDAZOLE]
2 | > 1000 | c1ccc(CN2CCCC(c3nnc(-c4ccc5[nH]nc(-c6ccc7c(c6)CCO7)c5c4)o3)C2)cc1 (stereo not drawn) [Example 307, 3-(2,3-DIHYDRO-5- BENZOFURANYL)-5-[5-[1- (PHENYLMETHYL)-3- (PIPERIDINYL]-1,3,4- OXADIAZOL-2-YL]-1H- INDAZOLE]
3 | ≥ 504 | Fc1cccc(F)c1CN1CCC[C@@H](c2cn(-c3ccc4[nH]nc(-c5ccnc6[nH]ccc56)c4c3)nn2)C1 [Example 248, 5-[4-[1-[(2,6- DIFLUOROPHENYL)METHYL]- 3(R)-PIPERIDINYL]-1H- 1,2,3-TRIAZOL-1-YL]-3-(1H PYRROLO[2,3-b]PYRIDIN-4- YL)-1H-INDAZOLE]
4 | ≥ 504 | Fc1cccc(F)c1CN1CC=CC[C@@H]1c1nc(-c2ccc3[nH]nc(-c4ccc5c(c4)CCO5)c3c2)n[nH]1 [Example 254, 5-[5-[1-[(2,6- DIFLUOROPHENYL)METHYL]- 1,2,3,6-TETRAHYDRO- 2(R)-PYRIDINYL]-1H-1,2,4- TRIAZOL-3-YL]-3-(2,3- DIHYDRO-5- BENZOFURANYL)-1H- INDAZOLE]
5 | ≥ 504 | Fc1cccc(F)c1CN1CCC[C@@H](c2nc(-c3ccc4[nH]nc(-c5ccnc(F)c5F)c4c3)n[nH]2)C1 [Example 302, 5-[5-[1-[(2,6- DIFLUOROPHENYL)METHYL]- 3(R)-PIPERIDINYL]-1H- 1,2,4-TRIAZOL-3-YL]-3-(2,3- DIFLUORO-4-PYRIDINYL)- 1H-INDAZOLE]
6 | ≥ 504 | COc1cccc(F)c1CN1CC=CC[C@@H]1c1nc(-c2ccc3[nH]nc(-c4ccc5c(c4)CCO5)c3c2)n[nH]1 [Example 253, 3-(2,3-DIHYDRO-5- BENZOFURANYL)-5-[5-[1-[(2- FLUORO-6- METHOXYPHENYL)METHYL]- 1,2,3,6-TETRAHYDRO- 2(R)-PYRIDINYL]-1H-1,2,4- TRIAZOL-3-YL]-1H- INDAZOLE]
7 | > 1000 | COc1cccc(F)c1CN1CCCCC1c1nc(-c2ccc3[nH]nc(-c4ccc5c(c4)CCO5)c3c2)n[nH]1 (stereo not drawn) [Example 258, 3-(2,3-DIHYDRO-5- BENZOFURANYL)-5-[5-[1-[(2- FLUORO-6- METHOXYPHENYL)METHYL]- 2-PIPERIDINYL]-1H-1,2,4- TRIAZOL-3-YL]-1H- INDAZOLE]
8 | > 1000 | Cn1cc(CN2CCC[C@@H](c3nnc(-c4ccc5[nH]nc(-c6ccc7nccn7c6)c5c4)o3)C2)c2ccccc21 [Example 328, 3-IMIDAZO[1,2-a]PYRIDIN-6- YL-5-[5-[1-[(1-METHYL-1H- INDOL-3-YL)METHYL]-3(R)- PIPERIDINYL]-1,3,4- OXADIAZOL-2-YL]-1H- INDAZOLE]
9 | > 1000 | Clc1cc(-c2n[nH]c3ccc(-c4nnc(C5CCCN(Cc6ccccc6)C5)o4)cc23)ccn1 (stereo not drawn) [Example 309, 3-(2-CHLORO-4-PYRIDINYL)- 5-[5-[1-(PHENYLMETHYL)-3- PIPERIDINYL]-1,3,4- OXADIAZOL-2-YL]-1H- INDAZOLE]
10 | ≥ 504 | Fc1ccccc1CN1CCC[C@@H](c2nnc(-c3ccc4[nH]nc(-c5ccc6occc6c5)c4c3)o2)C1 [Example 347, 3-(5-BENZOFURANYL)-5-[5- [1-[(2- FLUOROPHENYL)METHYL]- 3(R)-PIPERIDINYL]-1,3,4- OXADIAZOL-2-YL]-1H- INDAZOLE]
11 | ≥ 504 | C1=CCN(Cc2cccs2)[C@@H](c2nc(-c3ccc4[nH]nc(-c5ccc6c(c5)CCO6)c4c3)n[nH]2)C1 [Example 255, 3-(2,3-DIHYDRO-5- BENZOFURANYL)-5-[5- [1,2,3,6-TETRAHYDRO-1-(2- THIENYLMETHYL)-2(R)- PYRIDINYL]-1H-1,2,4- TRIAZOL-3-YL]-1H- INDAZOLE]
12 | > 1000 | Clc1cc(-c2n[nH]c3ccc(-c4nnc([C@@H]5CCCN(Cc6csc7ccccc67)C5)o4)cc23)ccn1 [Example 354, 5-[5-[1-(BENZO[b]THIEN-3- YLMETHYL)-3(R)- PIPERIDINYL]-1,3,4- OXADIAZOL-2-YL]-3-(2- CHLORO-4-PYRIDINYL)-1H- INDAZOLE]
